Values quoted from earlier work, collected in patent US9339504B2, “Orally disintegrating tablet compositions of lamotrigine” (ADARE Pharmaceuticals, Inc., priority 2007, dated 2016).
Values after ≈ are worked out from the molar mass of the structure shown. Like-named read-outs stand apart in the source and are kept apart here.

solubility in 0.01N HCl (0.01N HCl, 25° C.): ~3000 µg/mL (≈ 11.7 mM)
solubility in 0.1N HCl (0.1N HCl, 25° C.): ~4000 µg/mL (≈ 15.6 mM)
solubility in water (25° C.): ~170 µg/mL (≈ 0.664 mM)
solubility in water (37° C.): ~570 µg/mL (≈ 2.23 mM)
Structure (SMILES): Nc1nnc(-c2cccc(Cl)c2Cl)c(N)n1 [Lamotrigine, 3,5-diamino-6-(2,3,-dichlorophenyl)-1,2,4-triazine]
